Counter-ions that a name gives are not always drawn.
Target: T1, human 5-HT4e receptor (Homo sapiens, UniProt Q13639)
T1 construct: expressed in transfected cells; host or cells: CHO cells
Test: Binding affinity assay, radioligand [3H]GR 113808 binding in transfected CHO cell membrane homogenates
Details: 0.3 nM [3H]GR 113808; for Ki: human 5-HT4e receptor in transfected CHO cells, read-out: KI (μM or % inhibition); for inhibition at 0.3 µM: @ 0.3 uM test compound; for inhibition at 0.3 µM / inhibition at 3 µM: read-out: KI (μM or % inhibition): percent inhibition of the control radioligand specific binding; for inhibition at 3 µM: @ 3 uM test compound
Experimental: The evaluation of the affinity of compounds for the human 5-HT4e receptor in transfected CHO cells was determined in a radioligand binding assay. Experimental protocol: Cell membrane homogenates (140 μg protein) were incubated for […] at 37° C. with 0.3 nM [3H]GR 113808 in the absence or presence of the test compound in a buffer containing 50 mM Hepes/Tris (pH 7.4) and 1 μM pargyline. Nonspecific binding was determined in the presence of 100 μM 5-HT. Following incubation, the samples were filtered rapidly under vacuum through glass fiber filters (GF/B, Packard) presoaked with 0.3% PEI and rinsed several times with ice-cold 50 mM Tris-HCl using a 96-sample cell harvester (Unifilter, Packard). The filters were dried then counted for radioactivity in a scintillation counter (Topcount, Packard) using a scintillation cocktail (Microscint 0, Packard). The results are expressed as a percent inhibition of the control radioligand specific binding at a certain concentration of the test compound. The test compound can also be assessed at several concentrations to obtain a competition curve from which its IC50 and Ki are calculated.

T1 sequence (Q13639 1-378 isoform Q13639-5): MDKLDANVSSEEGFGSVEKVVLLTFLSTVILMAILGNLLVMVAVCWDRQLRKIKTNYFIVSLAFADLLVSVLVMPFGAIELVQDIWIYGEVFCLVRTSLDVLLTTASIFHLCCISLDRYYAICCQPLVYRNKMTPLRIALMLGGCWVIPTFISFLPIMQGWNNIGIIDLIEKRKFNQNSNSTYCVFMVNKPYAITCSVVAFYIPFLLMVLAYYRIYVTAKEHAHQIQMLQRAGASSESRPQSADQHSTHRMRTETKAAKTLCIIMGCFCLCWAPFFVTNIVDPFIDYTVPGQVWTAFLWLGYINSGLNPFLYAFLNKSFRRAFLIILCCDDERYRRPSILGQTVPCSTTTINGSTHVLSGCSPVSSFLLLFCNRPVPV

Compound	Ki [µM]	inhibition at 0.3 µM [%]	inhibition at 3 µM [%]
CC(C)n1cc(C(=O)C(=O)NCCN2CCC(C(F)(F)F)CC2)c2ccccc21 [Example 16, 2-(1-Isopropyl-1H-indol-3-yl)-2-oxo-N-(2-(4-(trifluoromethyl)piperidin-1-yl)ethyl)acetamide]	0.023	–	–
CC(C)CN1CCC(CNC(=O)C(=O)c2cn(C(C)C)c3ccccc23)CC1 [Example 15, N-((1-Isobutylpiperidin-4-yl)methyl)-2-(1-isopropyl-1H-indol-3-yl)-2-oxoacetamide]	0.016	–	–
CC(C)n1cc(C(=O)C(=O)NC2CCN(CCNS(C)(=O)=O)CC2)c2ccccc21 [Example 21, 2-(1-Isopropyl-1H-indol-3-yl)-N-(1-(2-(methylsulfonamido)ethyl)piperidin-4-yl)-2-oxoacetamide TFA salt]	–	95	101
CCn1cc(C(=O)C(=O)NCCN2CCCCC2)c2ccccc21 [Example 4, 2-(1-Ethyl-1H-indol-3-yl)-2-oxo-N-(2-(piperidin-1-yl)ethyl)acetamide hydrochloride]	0.005	–	–
CC(C)n1cc(C(=O)C(=O)NCCN2CCCCC2)c2cccnc21 [Example 17, 2-(1-Isopropyl-1H-pyrrolo[2,3-b]pyridin-3-yl)-2-oxo-N-(2-(piperidin-1-yl)ethyl)acetamide]	0.022	–	–
CCCC1CCN(CCNC(=O)C(=O)c2cn(C(C)C)c3ccccc23)CC1 [Example 18, 2-(1-Isopropyl-1H-indol-3-yl)-2-oxo-N-(2-(4-propylpiperidin-1-yl)ethyl)acetamide TFA salt]	–	99	102
COCCCN1CCC(NC(=O)C(=O)c2cn(C(C)C)c3ccccc23)CC1 [Example 20, 2-(1-Isopropyl-1H-indol-3-yl)-N-(1-(3-methoxypropyl)piperidin-4-yl)-2-oxoacetamide TFA salt]	0.0069	–	–
CCCN1CCC(NC(=O)C(=O)c2cn(C(C)C)c3ccccc23)CC1 [Example 14, 2-(1-Isopropyl-1H-indol-3-yl)-2-oxo-N-(1-propylpiperidin-4-yl)acetamide]	0.0027	–	–
CC(C)n1cc(C(=O)C(=O)NC2CCN(CCCO)CC2)c2ccccc21 [Example 13, N-(1-(3-Hydroxypropyl)piperidin-4-yl)-2-(1-isopropyl-1H-indol-3-yl)-2-oxoacetamide]	0.0024	–	–
CCCCC1CCN(CCNC(=O)C(=O)c2cn(C(C)C)c3ccccc23)CC1 [Example 24, N-(2-(4-Butylpiperidin-1-yl)ethyl)-2-(1-isopropyl-1H-indol-3-yl)-2-oxoacetamide]	–	95	101
CC(C)n1cc(C(=O)C(=O)NCCN2CCCCC2)c2ccc([N+](=O)[O-])cc21 [Example 7, 2-(1-Isopropyl-6-nitro-1H-indol-3-yl)-2-oxo-N-(2-(piperidin-1-yl)ethyl)acetamide hydrochloride]	2.7	–	–
CC(C)n1cc(C(=O)C(=O)NCCCN2CCCCC2)c2ccccc21 [Example 1, 2-(1-Isopropyl-1H-indol-3-yl)-2-oxo-N-(3-(piperidin-1-yl)propyl)acetamide hydrochloride]	0.007	–	–
CCC1CCN(CCNC(=O)C(=O)c2cn(C(C)C)c3ccccc23)CC1 [Example 23, N-(2-(4-ethylpiperidin-1-yl)ethyl)-2-(1-isopropyl-1H-indol-3-yl)-2-oxoacetamide hydrochloride]	–	99	101
CC(C)n1cc(C(=O)C(=O)NCCN2CCCCC2)c2ccccc21 [Example 2, 2-(1-Isopropyl-1H-indol-3-yl)-2-oxo-N-(2-(piperidin-1-yl)ethyl)acetamide hydrochloride]	0.005	–	–
CCCCN1CCC(NC(=O)C(=O)c2cn(C(C)C)c3ccccc23)CC1 [Example 19, N-(1-Butylpiperidin-4-yl)-2-(1-isopropyl-1H-indol-3-yl)-2-oxoacetamide]	0.0025	–	–
CCC(C)n1cc(C(=O)C(=O)NCCN2CCCCC2)c2ccccc21 (centres unmarked) [Example 5, 2-(1-sec-Butyl-1H-indol-3-yl)-2-oxo-N-(2-(piperidin-1-yl)ethyl)acetamide hydrochloride]	0.031	–	–
CC(C)n1cc(C(=O)C(=O)NCCN2CCCCC2)c2ccc(N)c(Cl)c21 [Example 9, 2-(6-Amino-7-chloro-1-isopropyl-1H-indol-3-yl)-2-oxo-N-(2-(piperidin-1-yl)ethyl)acetamide hydrochloride]	0.1	–	–
CC(C)n1cc(C(=O)C(=O)NCCN2CCCCC2)c2cc(Cl)ccc21 [Example 6, 2-(5-Chloro-1-isopropyl-1H-indol-3-yl)-2-oxo-N-(2-(piperidin-1-yl)ethyl)acetamide hydrochloride]	0.047	–	–
Cc1ccc2c(c1)c(C(=O)C(=O)NCCN1CCCCC1)cn2C(C)C [Example 12, 2-(1-isopropyl-5-methyl-1H-indol-3-yl)-2-oxo-N-(2-(piperidin-1-yl)ethyl)acetamide]	0.071	–	–
CCN(CC)CCNC(=O)C(=O)c1cn(C(C)C)c2ccccc12 [Example 3, N-(2-(Diethylamino)ethyl)-2-(1-isopropyl-1H-indol-3-yl)-2-oxoacetamide hydrochloride]	0.008	–	–
CC(C)n1cc(C(=O)C(=O)NCCN2CCC(CCO)CC2)c2ccccc21 [Example 22, N-(2-(4-(2-Hydroxyethyl)piperidin-1-yl)ethyl)-2-(1-isopropyl-1H-indol-3-yl)-2-oxoacetamide hydrochloride]	–	99	101
CC(C)n1cc(C(=O)C(=O)NCCN2CCCC2)c2ccccc21 [Example 10, 2-(1-Isopropyl-1H-indol-3-yl)-2-oxo-N-(2-(pyrrolidin-1-yl)ethyl)acetamide]	0.013	–	–
COc1ccc2c(c1)c(C(=O)C(=O)NCCN1CCCCC1)cn2C(C)C [Example 11, 2-(1-Isopropyl-5-methoxy-1H-indol-3-yl)-2-oxo-N-(2-(piperidin-1-yl)ethyl)acetamide]	0.31	–	–
CC(C)n1cc(C(=O)C(=O)NCCN2CCCCC2)c2ccc(N)cc21 [Example 8, 2-(6-Amino-1-isopropyl-1H-indol-3-yl)-2-oxo-N-(2-(piperidin-1-yl)ethyl)acetamide hydrochloride]	0.75	–	–

Reference: US8114894B2, “Bicyclic compounds and methods of making and using same” (Nanotherapeutics, Inc., priority 2008, dated 2012)
